This note sets out measurements from publication PMC3668304, “Antidiabetic and antioxidant properties of Ficus deltoidea fruit extracts and fractions” (BMC Complementary and Alternative Medicine, 2013).

SMILES strings stand for the structures. Values after ≈ are worked out from the molar mass of the structure shown.

This test has as its target T1, rat intestinal α-glucosidase (substrate pNPG).
T1 construct: gene Si; crude native enzyme from Sigma rat intestinal acetone powder
The test can be described thus: colorimetric p-nitrophenol release, […] nm. The test is classed as biochemical. Particulars: substrate 4 mM pNPG (added stock); sodium phosphate buffer; 37°C, 30 min; crude enzyme.

Molecule `C[C@H]1O[C@H](O[C@H]2[C@H](O)[C@@H](O)[C@@H](O[C@H]3[C@H](O)[C@@H](O)C(O)O[C@@H]3CO)O[C@@H]2CO)[C@H](O)[C@@H](O)[C@@H]1N[C@H]1C=C(CO)[C@@H](O)[C@H](O)[C@H]1O` (stereo partly shown) [acarbose] had an IC50 of 57.79 ± 0.66 µg/mL (≈ 89.5 µM).

What is called IC50 is the concentration that inhibits the measured activity by half.
